From patent US8420574B2, “Plant growth enhancement with combinations of PESA and herbicides” (Valent BioSciences Corporation, priority 2009, dated 2013)
Where a name gives a salt, the structure may show the parent alone.

What was measured:
Type in all cases: in vivo
rice cv. Cheniere = test: Pouch assay, PESA salt and herbicide added to the pouch solution; root and shoot length
Experimental: Alternatively, PESA salt and herbicides may be added separately to the sterile water in the growth pouch.
(§1) Seeds were placed in germination pouches consisting of germination paper hydrated with sterile water that was an insert in a gas-permeable 16×14 cm plastic pouch (CYG Pouch; Mega International, St. Paul, Minn.). In these examples, in pouch solution evaluation, PESA sodium salt or other active ingredients were added to the sterile water in the pouch. The pouches were arranged in a completely randomized block design in growth racks and placed in 19-liter polycarbonate food storage containers (Rubbermaid Commercial Products, Winchester, Va.). The sealed containers were held in an upright growth cabinet maintained at 25 C with a 12 hour light: 12 hour dark photoperiod. After 6 days, the containers were removed from the growth cabinet, and the lengths of the roots and shoot were measured.

rice cv. Nipponbare = test: Hydroponic assay; total root length and shoot length; conditions: for Shoot Length / Total Root Length: 40 ppm PESA salt
Experimental: Where hydroponically-grown rice was used in studies, the seeds were pre-incubated in water at 30 C for 2 days to stimulate germination. Three seeds were placed on a float and cultivated hydroponically in a test tube (25 mm×200 mm), which contained 50 ml of Kimura B nutrient solution at ⅛th strength supplemented with herbicides and PESA sodium salt. The exposure of the roots to the light was prevented by wrapping the tubes with aluminum foil. The rice seedlings were incubated in a growth cabinet at 25 C under continuous light for 14 days, and the total root length and shoot length were measured. Total root length (cm) was the root length/plant determined following scanning with WinRhizo software (Regent Instruments INC, Toronto, Canada).

cotton = test: Pouch assay; root and shoot length of cotton; conditions: for Shoot Length / Root Length: 30 ppm PESA salt; for Shoot Length: untreated 4.7; for Root Length: untreated 7.7
Experimental: as §1

[1] = 40 ppm PESA salt with 0.1 ppm dicamba
[2] = 40 ppm PESA salt with 0.1 ppm imazosulfuron
[3] = 40 ppm PESA salt with 1 ppm flumioxazin

For O=C(O)CCC(=O)NCCc1ccccc1 [PESA salt, N-(2-phenylethyl)succinamic acid], the “Shoot Length” value (rice cv. Cheniere; 0 ppm pendimethalin, treatment 30 ppm PESA salt, 10 ppm GA3 or both, untreated 3.9) was 3.8 cm, the “Root Length” value (rice cv. Cheniere; 0 ppm pendimethalin, treatment 30 ppm PESA salt, 10 ppm GA3 or both, untreated 9.7) was 11.2 cm and the “Shoot Length” value (rice cv. Cheniere; 10 ppm dithiopyr, treatment none (Control), 30 ppm PESA salt, 10 ppm GA3 or both, untreated 3.9) was 2.8 cm. The “Root Length” value (rice cv. Cheniere; 10 ppm dithiopyr, treatment none (Control), 30 ppm PESA salt, 10 ppm GA3 or both, untreated 9.5) was 6.4 cm, the “Shoot Length” value (rice cv. Cheniere; 30 ppm PESA salt, 0 ppm chlorsulfuron, untreated 4.8) was 4.9 cm and the “Root Length” value (rice cv. Cheniere; 30 ppm PESA salt, 0 ppm chlorsulfuron, untreated 11.6) was 12.8 cm. For the same compound, the “Shoot Length” value (rice cv. Cheniere; 30 ppm PESA salt, 0 ppm dithiopyr, untreated 4.0) was 4.2 cm, the “Root Length” value (rice cv. Cheniere; 30 ppm PESA salt, 0 ppm dithiopyr, untreated 9.5) was 12.2 cm and the “Shoot Length” value (rice cv. Cheniere; 30 ppm PESA salt, 0 ppm metolachlor, untreated 3.7) was 3.7 cm. The “Root Length” value (rice cv. Cheniere; 30 ppm PESA salt, 0 ppm metolachlor, untreated 9.3) was 10.9 cm, the “Shoot Length” value (rice cv. Cheniere; 30 ppm PESA salt, 0 ppm pendimethalin, untreated 3.4) was 3.6 cm and the “Root Length” value (rice cv. Cheniere; 30 ppm PESA salt, 0 ppm pendimethalin, untreated 8.5) was 10.1 cm. The “Shoot Length” value (rice cv. Cheniere; 30 ppm PESA salt, 0 ppm trifluralin, untreated 3.2) was 3.7 cm, the “Root Length” value (rice cv. Cheniere; 30 ppm PESA salt, 0 ppm trifluralin, untreated 9.2) was 10.7 cm and the “Shoot Length” value (rice cv. Cheniere; 30 ppm PESA salt, 1 ppm dithiopyr, untreated 4.0) was 4.0 cm. For the same compound, the “Root Length” value (rice cv. Cheniere; 30 ppm PESA salt, 1 ppm dithiopyr, untreated 9.5) was 11.4 cm, the “Shoot Length” value (rice cv. Cheniere; 30 ppm PESA salt, 1 ppm metolachlor, untreated 3.7) was 3.9 cm and the “Root Length” value (rice cv. Cheniere; 30 ppm PESA salt, 1 ppm metolachlor, untreated 9.3) was 8.6 cm. For the same compound, the “Shoot Length” value (rice cv. Cheniere; 30 ppm PESA salt, 1 ppm trifluralin, untreated 3.2) was 3.6 cm, the “Root Length” value (rice cv. Cheniere; 30 ppm PESA salt, 1 ppm trifluralin, untreated 9.2) was 10.6 cm and the “Shoot Length” value (rice cv. Cheniere; 30 ppm PESA salt, 10 ppm chlorsulfuron, untreated 4.8) was 0.9 cm. For the same compound, the “Root Length” value (rice cv. Cheniere; 30 ppm PESA salt, 10 ppm chlorsulfuron, untreated 11.6) was 0.5 cm, the “Shoot Length” value (rice cv. Cheniere; 30 ppm PESA salt, 10 ppm dithiopyr, untreated 4.0) was 3.7 cm and the “Root Length” value (rice cv. Cheniere; 30 ppm PESA salt, 10 ppm dithiopyr, untreated 9.5) was 9.1 cm. For the same compound, the “Shoot Length” value (rice cv. Cheniere; 30 ppm PESA salt, 10 ppm metolachlor, untreated 3.7) was 0.9 cm, the “Root Length” value (rice cv. Cheniere; 30 ppm PESA salt, 10 ppm metolachlor, untreated 9.3) was 4.4 cm and the “Shoot Length” value (rice cv. Cheniere; 30 ppm PESA salt, 10 ppm pendimethalin, untreated 3.4) was 3.2 cm. The “Root Length” value (rice cv. Cheniere; 30 ppm PESA salt, 10 ppm pendimethalin, untreated 8.5) was 9.4 cm, the “Shoot Length” value (rice cv. Cheniere; 30 ppm PESA salt, 10 ppm trifluralin, untreated 3.2) was 2.9 cm and the “Root Length” value (rice cv. Cheniere; 30 ppm PESA salt, 10 ppm trifluralin, untreated 9.2) was 9.1 cm. For the same compound, the “Shoot Length” value (rice cv. Cheniere; 30 ppm PESA salt, 100 ppm chlorsulfuron, untreated 4.8) was 0.8 cm, the “Root Length” value (rice cv. Cheniere; 30 ppm PESA salt, 100 ppm chlorsulfuron, untreated 11.6) was 0.3 cm and the “Shoot Length” value (rice cv. Cheniere; 30 ppm PESA salt, 100 ppm dithiopyr, untreated 4.0) was 1.1 cm. For the same compound, the “Root Length” value (rice cv. Cheniere; 30 ppm PESA salt, 100 ppm dithiopyr, untreated 9.5) was 0.4 cm, the “Shoot Length” value (rice cv. Cheniere; 30 ppm PESA salt, 100 ppm metolachlor, untreated 3.7) was 0.6 cm and the “Root Length” value (rice cv. Cheniere; 30 ppm PESA salt, 100 ppm metolachlor, untreated 9.3) was 1.7 cm. For the same compound, the “Shoot Length” value (rice cv. Cheniere; 30 ppm PESA salt, 100 ppm pendimethalin, untreated 3.4) was 1.0 cm, the “Root Length” value (rice cv. Cheniere; 30 ppm PESA salt, 100 ppm pendimethalin, untreated 8.5) was 3.1 cm and the “Shoot Length” value (rice cv. Cheniere; 30 ppm PESA salt, 100 ppm trifluralin, untreated 3.2) was 2.4 cm. The “Root Length” value (rice cv. Cheniere; 30 ppm PESA salt, 100 ppm trifluralin, untreated 9.2) was 5.1 cm, the “Shoot Length” value (rice cv. Cheniere; 30 ppm PESA salt, 500 ppm pendimethalin, untreated 3.4) was 0.5 cm and the “Root Length” value (rice cv. Cheniere; 30 ppm PESA salt, 500 ppm pendimethalin, untreated 8.5) was 0.6 cm. The “protection of roots from herbicide” value (rice cv. Cheniere; 30 ppm PESA with 10 ppm dithiopyr) was “protected the roots largely from the negative effects of dithiopyr”, the “protection of roots from herbicide” value (rice cv. Cheniere; 30 ppm PESA with 100 ppm trifluralin) was “largely protected the roots from the negative effects of trifluralin” and the “Shoot Length” value (rice cv. Cheniere; 50 ppm pendimethalin, treatment none (Control), 30 ppm PESA salt, 10 ppm GA3 or both, untreated 3.9) was 1.1 cm. For the same compound, the “Root Length” value (rice cv. Cheniere; 50 ppm pendimethalin, treatment none (Control), 30 ppm PESA salt, 10 ppm GA3 or both, untreated 9.7) was 5.6 cm, the “root length greater than with pendimethalin alone” value (rice cv. Cheniere; PESA and pendimethalin, on average) was 20% and the “root length relative to pendimethalin alone” value (rice cv. Cheniere; PESA salt added to pendimethalin (Table 4)) was “twice the length of those grown in pendimethalin alone”. The “effect on root and shoot length” value (rice cv. Cheniere; PESA salt in the absence of trifluralin) was “significant increase in both root and shoot length”, the “protection of roots from herbicide” value (rice cv. Cheniere; PESA salt with 10 ppm metolachlor) was “partially protected primary root length” and the “protection of root length from herbicide” value (rice cv. Cheniere; PESA salt with chlorsulfuron, rice) was “had no activity in combination with chlorsulfuron”. The “effect on shoot length under herbicide” value (rice cv. Cheniere; PESA salt with dithiopyr) was “did not significantly alter the negative effects of dithiopyr on shoot length”, the “effect on shoot growth under herbicide” value (rice cv. Cheniere; PESA salt with pendimethalin) was “did not overcome the negative effects of pendimethalin on shoot growth” and the “effect on shoot length under herbicide” value (rice cv. Cheniere; PESA salt with trifluralin) was “did not consistently overcome the negative effects of trifluralin on shoot length”. The “root length increased by” value (rice cv. Cheniere; addition of 30 ppm PESA to 100 ppm pendimethalin) was 25%, the “Shoot Length” value (rice cv. Cheniere; no dithiopyr (Control), treatment 30 ppm PESA salt, 10 ppm GA3 or both, untreated 3.9) was 3.6 cm and the “Root Length” value (rice cv. Cheniere; no dithiopyr (Control), treatment 30 ppm PESA salt, 10 ppm GA3 or both, untreated 9.5) was 10.7 cm. The “protection of roots from herbicide” value (rice cv. Nipponbare; [1]) was “largely protected the roots from the negative effects of dicamba”, the “protection of shoots from herbicide” value (rice cv. Nipponbare; [1]) was “largely protected the shoots from the negative effects of dicamba” and the “total root length increased by, as compared with untreated control” value (rice cv. Nipponbare; [1]) was 61%. The “protection of roots from herbicide” value (rice cv. Nipponbare; [2]) was “largely protected the roots from the negative effects of imazosulfuron”, the “total root length increased by, as compared with untreated control” value (rice cv. Nipponbare; [2]) was 87% and the “protection of roots from herbicide” value (rice cv. Nipponbare; [3]) was “protected the roots from the negative effects of flumioxazin”. The “protection of shoots from herbicide” value (rice cv. Nipponbare; [3]) was “largely protected the shoots from the negative effects of flumioxazin”, the “protection of shoots from herbicide” value (rice cv. Nipponbare; 40 ppm PESA salt with 1 ppm imazosulfuron) was “largely protected the shoots from the negative effects of the herbicide” and the “protection of roots from herbicide” value (rice cv. Nipponbare; 40 ppm PESA salt with 3 ppm clodinafop-propargyl) was “protected the roots from the negative effects of the herbicide”. For the same compound, the “Shoot Length” value (rice cv. Nipponbare; 0 ppm clodinafop-propargyl, untreated 10.6) was 13.3 cm, the “Total Root Length” value (rice cv. Nipponbare; 0 ppm clodinafop-propargyl, untreated 52.1) was 193.9 cm and the “Shoot Length” value (rice cv. Nipponbare; 0 ppm dicamba, untreated 11.4) was 15.1 cm. For the same compound, the “Total Root Length” value (rice cv. Nipponbare; 0 ppm dicamba, untreated 44.9) was 121.9 cm, the “Shoot Length” value (rice cv. Nipponbare; 0 ppm flumioxazin, untreated 10.6) was 13.3 cm and the “Total Root Length” value (rice cv. Nipponbare; 0 ppm flumioxazin, untreated 52.1) was 193.9 cm. The “Shoot Length” value (rice cv. Nipponbare; 0 ppm imazosulfuron, untreated 11.4) was 15.1 cm, the “Total Root Length” value (rice cv. Nipponbare; 0 ppm imazosulfuron, untreated 44.9) was 121.9 cm and the “Shoot Length” value (rice cv. Nipponbare; 0.01 ppm dicamba, untreated 11.4) was 15.1 cm. The “Total Root Length” value (rice cv. Nipponbare; 0.01 ppm dicamba, untreated 44.9) was 155.4 cm, the “Shoot Length” value (rice cv. Nipponbare; 0.01 ppm imazosulfuron, untreated 11.4) was 14.5 cm and the “Total Root Length” value (rice cv. Nipponbare; 0.01 ppm imazosulfuron, untreated 44.9) was 169.8 cm. For the same compound, the “Shoot Length” value (rice cv. Nipponbare; 0.1 ppm dicamba, untreated 11.4) was 12.5 cm, the “Total Root Length” value (rice cv. Nipponbare; 0.1 ppm dicamba, untreated 44.9) was 72.5 cm and the “Shoot Length” value (rice cv. Nipponbare; 0.1 ppm flumioxazin, untreated 10.6) was 12.3 cm. The “Total Root Length” value (rice cv. Nipponbare; 0.1 ppm flumioxazin, untreated 52.1) was 132.6 cm, the “Shoot Length” value (rice cv. Nipponbare; 0.1 ppm imazosulfuron, untreated 11.4) was 13.2 cm and the “Total Root Length” value (rice cv. Nipponbare; 0.1 ppm imazosulfuron, untreated 44.9) was 83.8 cm. The “Shoot Length” value (rice cv. Nipponbare; 0.3 ppm clodinafop-propargyl, untreated 10.6) was 14.3 cm, the “Total Root Length” value (rice cv. Nipponbare; 0.3 ppm clodinafop-propargyl, untreated 52.1) was 202.6 cm and the “Shoot Length” value (rice cv. Nipponbare; 0.3 ppm flumioxazin, untreated 10.6) was 10.3 cm. The “Total Root Length” value (rice cv. Nipponbare; 0.3 ppm flumioxazin, untreated 52.1) was 102.8 cm, the “Shoot Length” value (rice cv. Nipponbare; 1 ppm clodinafop-propargyl, untreated 10.6) was 13.6 cm and the “Total Root Length” value (rice cv. Nipponbare; 1 ppm clodinafop-propargyl, untreated 52.1) was 110.5 cm. For the same compound, the “Shoot Length” value (rice cv. Nipponbare; 1 ppm dicamba, untreated 11.4) was 3.6 cm, the “Total Root Length” value (rice cv. Nipponbare; 1 ppm dicamba, untreated 44.9) was 9.2 cm and the “Shoot Length” value (rice cv. Nipponbare; 1 ppm flumioxazin, untreated 10.6) was 7.5 cm. The “Total Root Length” value (rice cv. Nipponbare; 1 ppm flumioxazin, untreated 52.1) was 53 cm, the “Shoot Length” value (rice cv. Nipponbare; 1 ppm imazosulfuron, untreated 11.4) was 7.9 cm and the “Total Root Length” value (rice cv. Nipponbare; 1 ppm imazosulfuron, untreated 44.9) was 13.8 cm. The “Shoot Length” value (rice cv. Nipponbare; 3 ppm clodinafop-propargyl, untreated 10.6) was 11.8 cm, the “Total Root Length” value (rice cv. Nipponbare; 3 ppm clodinafop-propargyl, untreated 52.1) was 44.3 cm and the “Shoot Length” value (rice cv. Nipponbare; 3 ppm flumioxazin, untreated 10.6) was 6.5 cm. The “Total Root Length” value (rice cv. Nipponbare; 3 ppm flumioxazin, untreated 52.1) was 24.4 cm, the “Shoot Length” value (cotton; 0 ppm chlorsulfuron) was 5.2 cm and the “Root Length” value (cotton; 0 ppm chlorsulfuron) was 14.0 cm. The “Shoot Length” value (cotton; 1 ppm chlorsulfuron) was 2.7 cm, the “Root Length” value (cotton; 1 ppm chlorsulfuron) was 2.1 cm and the “Shoot Length” value (cotton; 10 ppm chlorsulfuron) was 1.7 cm. The “Root Length” value (cotton; 10 ppm chlorsulfuron) was 2.0 cm, the “Shoot Length” value (cotton; 100 ppm chlorsulfuron) was 1.7 cm and the “Root Length” value (cotton; 100 ppm chlorsulfuron) was 2.0 cm. The “protection of root length from herbicide” value (cotton; PESA salt with chlorsulfuron) was “unable to overcome the negative effects of chlorsulfuron on root length”.
